Experimental data reported in article PMC8084100, “Bypassing the requirement for aminoacyl-tRNA by a cyclodipeptide synthase enzyme” (RSC Chemical Biology, 2021).

Assays:
BtCDPS [1] = molecular target: T1, BtCDPS (Caldibacillus thermoamylovorans, UniProt A0A090KS30); assay: LC-MS of cyclic dipeptide product; format: biochemical; settings: 50 mM HEPES pH 7.5, 500 mM NaCl, 5 mM DTT, 1 mM substrate, 20 °C, 24 h
T1 construct: gene yvmC; full length (residues 1-232), codon-optimised synthetic gene, TEV-cleavable His6 tag cut, E. coli BL21(DE3), monomer

BtCDPS [2] = molecular target: T1, BtCDPS; assay: LC-HRMS of cLL product; HPLC of DBE-OH; intact protein MS of acyl-enzyme; format: biochemical; settings: 50 mM HEPES pH 7.5, 500 mM NaCl, 5 mM DTT, 500 uM substrate, room temperature; covalent (leucyl-enzyme intermediate at S33)

T1 sequence (A0A090KS30 1-231): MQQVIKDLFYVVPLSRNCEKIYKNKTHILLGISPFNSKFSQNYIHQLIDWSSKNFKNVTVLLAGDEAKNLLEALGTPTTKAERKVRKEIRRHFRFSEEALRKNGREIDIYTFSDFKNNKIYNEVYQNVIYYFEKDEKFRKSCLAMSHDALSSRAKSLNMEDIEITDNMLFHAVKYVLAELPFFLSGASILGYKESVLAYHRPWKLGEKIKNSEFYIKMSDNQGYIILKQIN

| SMILES | LC-MS of cyclic dipeptide product (BtCDPS [1]) | LC-HRMS of cLL product; HPLC of DBE-OH; intact protein MS of acyl-enzyme (BtCDPS [2]) |
| --- | --- | --- |
| CC[C@H](C)[C@H](N)C(=O)OCc1cc([N+](=O)[O-])cc([N+](=O)[O-])c1 [Ile-DBE] | Ile-DBE and Met-DBE were also substrates for BtCDPS |  |
| CC(C)C[C@H](N)C(=O)OCc1cc([N+](=O)[O-])cc([N+](=O)[O-])c1 [Leu-DBE] |  | a cyclic dipeptide (cLL) is generated by CDPS when Leu-DBE was used as a substrate |
| CSCC[C@H](N)C(=O)OCc1cc([N+](=O)[O-])cc([N+](=O)[O-])c1 [Met-DBE] | Ile-DBE and Met-DBE were also substrates for BtCDPS |  |
